Test results taken from US20090137527A1, “Compositions and methods for modulating immune function” (Resolvyx Pharmaceuticals, Inc., priority 2007, published 2009).

Tests used:
[1] = system: mice with established Type II collagen arthritis; test: Male DBA/1J mouse established Type II collagen arthritis; format: in vivo
Description: Male DBA/1J mice (7-9 weeks old on arrival; at least 7 weeks old at time of first immunization) were housed 5 per cage and were acclimated for enough days after arrival such that all animals were at least 7 weeks old at start of study.
Mice were anesthetized with Isoflurane and given intradermal collagen (2 mg/ml) injections at the base of the tail in a volume of 150 μl (D0 and D21). On days 21-35, onset of arthritis occurred and mice were randomized into treatment groups. Randomization into each group was done after swelling was obviously established in at least one paw, and attempts were made to assure approximately equal mean scores across the groups at time of enrollment. Treatment was initiated after enrollment and continued every day for a total of 10 days as outlined in Table 3. During the ten days of treatment, clinical scores were given for each of the paws (right front, left front, right rear, and left rear) according to the scoring methods provided below. […]
• 0 Normal • 1 Minimal—small areas of resorption, not readily apparent on low magnification, rare osteoclasts in affected joints • 2 Mild—more numerous areas of resorption, not readily apparent on low magnification, osteoclasts more numerous in affected joints • 3 Moderate—obvious resorption of medullary trabecular and cortical bone without full thickness defects in cortex, loss of some medullary trabeculae, lesion apparent on low magnification, osteoclasts more numerous in affected joints • 4 Marked—Full thickness defects in cortical bone, often with distortion of profile of remaining cortical surface, marked loss of medullary bone, numerous osteoclasts, affects most joints • Severe—Full thickness defects in cortical bone and destruction of joint architecture of all joints
Histologic parameters (mean±SE) for each group were analyzed for differences using the Chi Square Test and one way ANOVA. […]

spleen cells = test: In vitro treatment of mouse spleen cells, CD3-induced cytokine production; format: cell-based; conditions: 10 nM or 1000 nM, 5 days culture, then anti-CD3 overnight
Description: BALB/c female mice, 6-8 weeks old, were euthanized and spleens were removed under sterile conditions. Spleens were gently pressed through a nylon strainer. Spleen cells and remaining connective tissue mass were incubated in a 6-well plate with 4 mL of Growth Media (RPMI 1640 supplemented with 10% FCS). Compound X was added to give a final concentration of 10 nM or 1000 nM. Control groups were spleen cells without addition of Compound X. All groups were in triplicates (3 animals per group). Plates were cultured in a 37° C., 5% CO2 incubator. Once a day, 1 mL of culture media was removed from each well and replaced with 1 mL fresh growth media containing the same concentration of Compound X or fresh media only. Culture was continued for 5 days. All cells were then removed from the plates. Cells were passed through a nylon strainer to remove any aggregates, washed, counted and adjusted to 2.5×10^6/mL in growth media. To anti-CD3 coated plates (coated per the procedure described below) were added 200 μL, or 5×10^5 cells per well. Cells were cultured in a 37° C., 5% CO2 incubator overnight. Supernatants were harvested, and cytokine levels were measured by Bioplex.
For CD3 stimulation, anti-mouse CD3 mAb (BD Pharmingen clone 145-2C11) was used at 0.2 μg/mL in PBS to coat flat bottom 96-well plate at 4° C. overnight. Plates were rinsed twice with PBS before use.

CC[C@@H](O)/C=C/C=C\C[C@@H](O)/C=C/C=C/C=C\[C@@H](O)CCCC(=O)O [Compound X]
clinical symptoms of arthritis (clinical scoring in the paws) ([1]; once daily i.v. at both 0.5 and 5.0 μg/kg, vs arthritic control): inhibited | pannus formation and bone loss (histologic scoring) ([1]; once daily i.v. at both 0.5 and 5.0 μg/kg, vs vehicle control): reduced | score of bone damage (histologic scoring in joints) ([1]; twice daily 5 μg/kg i.v., vs vehicle control): significant decrease | CD3-induced cytokine production of spleen cells after in vitro treatment (spleen cells): inhibited
